Reference: the supplement of paper PMC8612539
Converted amounts (≈) assume the structure as drawn.

How the values were obtained:
Mannheimia haemolytica = test: minimum inhibitory concentration (MIC)
Method: (§1)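 Broth microdilution MIC (Sensititre BOPO7F bovine plate, CLSI methods) of 19 antimicrobials against field isolates of P. multocida, M. haemolytica, H. somni (deep nasopharyngeal swabs) and E. coli, Enterococcus spp. (rectal swabs) from weaned dairy heifers. Incubation 16-24 h at 35 C. MIC is the lowest concentration preventing visible growth. Values with <= or > lie at the tested range limits. Trimethoprim-sulfamethoxazole is given as the trimethoprim component of a 1:19 mixture.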

Enterococcus spp. = test: minimum inhibitory concentration (MIC)
Method: as §1

CC[C@H]1OC(=O)C[C@@H](O)[C@H](C)[C@@H](O[C@@H]2O[C@H](C)[C@@H](O)[C@H](N(C)C)[C@H]2O)[C@@H](CCN2C[C@H](C)C[C@H](C)C2)C[C@@H](C)C(=O)/C=C/C(C)=C/[C@@H]1CO[C@@H]1O[C@H](C)[C@@H](O)[C@@H](OC)[C@H]1OC [Tilmicosin]
minimum inhibitory concentration [µg/mL]
Details	Enterococcus spp.	Mannheimia haemolytica
isolate (source animal id): 2	8 (≈ 9.2 µM)	–
isolate (source animal id): 8	–	4 (≈ 4.6 µM)
isolate (source animal id): 13	–	4 (≈ 4.6 µM)
isolate (source animal id): 18	–	4 (≈ 4.6 µM)
isolate (source animal id): 21	–	4 (≈ 4.6 µM)
isolate (source animal id): 25	–	> 16
isolate (source animal id): 27	–	> 16
isolate (source animal id): 28	–	16 (≈ 18.4 µM)
isolate (source animal id): 30	–	8 (≈ 9.2 µM)
isolate (source animal id): 31	–	> 16
isolate (source animal id): 32	–	4 (≈ 4.6 µM)
isolate (source animal id): 34	–	8 (≈ 9.2 µM)
isolate (source animal id): 35	> 16	–
isolate (source animal id): 36	–	> 16
isolate (source animal id): 37	–	> 16
isolate (source animal id): 40	–	4 (≈ 4.6 µM)
isolate (source animal id): 41	–	4 (≈ 4.6 µM)
isolate (source animal id): 42	8 (≈ 9.2 µM)	–
isolate (source animal id): 43	–	4 (≈ 4.6 µM)
isolate (source animal id): 44	8 (≈ 9.2 µM)	–
isolate (source animal id): 46	–	> 16
isolate (source animal id): 49	–	> 16
isolate (source animal id): 50	–	> 16
isolate (source animal id): 51	–	4 (≈ 4.6 µM)
isolate (source animal id): 52	–	4 (≈ 4.6 µM)
isolate (source animal id): 53	–	4 (≈ 4.6 µM)
isolate (source animal id): 55	–	4 (≈ 4.6 µM)
isolate (source animal id): 56	–	4 (≈ 4.6 µM)
isolate (source animal id): 57	–	> 16
isolate (source animal id): 79	8 (≈ 9.2 µM)	–
isolate (source animal id): 88	8 (≈ 9.2 µM)	–
isolate (source animal id): 91	8 (≈ 9.2 µM)	–
isolate (source animal id): 92	16 (≈ 18.4 µM)	–
isolate (source animal id): 100	–	> 16
isolate (source animal id): 103	–	> 16
isolate (source animal id): 107	–	16 (≈ 18.4 µM)
isolate (source animal id): 108	–	16 (≈ 18.4 µM)
isolate (source animal id): 111	8 (≈ 9.2 µM)	–
isolate (source animal id): 112	–	> 16
isolate (source animal id): 113	–	> 16
isolate (source animal id): 121	–	> 16
isolate (source animal id): 122	> 16	> 16
isolate (source animal id): 123	8 (≈ 9.2 µM)	> 16
isolate (source animal id): 126	–	> 16
isolate (source animal id): 133	8 (≈ 9.2 µM)	> 16
isolate (source animal id): 135	–	> 16
isolate (source animal id): 138	–	> 16
isolate (source animal id): 141	–	> 16
isolate (source animal id): 142	–	> 16
isolate (source animal id): 145	–	16 (≈ 18.4 µM)
isolate (source animal id): 149	–	8 (≈ 9.2 µM)
isolate (source animal id): 151	–	8 (≈ 9.2 µM)
isolate (source animal id): 152	–	> 16
isolate (source animal id): 154	–	8 (≈ 9.2 µM)
isolate (source animal id): 158	> 16	–
isolate (source animal id): 159	–	> 16
isolate (source animal id): 162	–	> 16
isolate (source animal id): 168	16 (≈ 18.4 µM)	–
isolate (source animal id): 169	16 (≈ 18.4 µM)	–
isolate (source animal id): 170	–	16 (≈ 18.4 µM)
isolate (source animal id): 171	16 (≈ 18.4 µM)	8 (≈ 9.2 µM)
isolate (source animal id): 172	–	16 (≈ 18.4 µM)
isolate (source animal id): 173	–	16 (≈ 18.4 µM)
isolate (source animal id): 175	> 16	–
isolate (source animal id): 177	16 (≈ 18.4 µM)	–
isolate (source animal id): 179	–	8 (≈ 9.2 µM)
isolate (source animal id): 180	–	4 (≈ 4.6 µM)
isolate (source animal id): 181	8 (≈ 9.2 µM)	–
isolate (source animal id): 182	16 (≈ 18.4 µM)	–
isolate (source animal id): 183	8 (≈ 9.2 µM)	4 (≈ 4.6 µM)
isolate (source animal id): 186	–	4 (≈ 4.6 µM)
isolate (source animal id): 187	16 (≈ 18.4 µM)	8 (≈ 9.2 µM)
isolate (source animal id): 188	–	4 (≈ 4.6 µM)
isolate (source animal id): 190	8 (≈ 9.2 µM)	4 (≈ 4.6 µM)
isolate (source animal id): 191	–	16 (≈ 18.4 µM)
isolate (source animal id): 192	–	8 (≈ 9.2 µM)
isolate (source animal id): 194	8 (≈ 9.2 µM)	–
isolate (source animal id): 195	8 (≈ 9.2 µM)	–
isolate (source animal id): 197	8 (≈ 9.2 µM)	–
isolate (source animal id): 201	–	16 (≈ 18.4 µM)
isolate (source animal id): 202	–	16 (≈ 18.4 µM)
isolate (source animal id): 209	–	16 (≈ 18.4 µM)
isolate (source animal id): 211	8 (≈ 9.2 µM)	16 (≈ 18.4 µM)
isolate (source animal id): 214	8 (≈ 9.2 µM)	–
isolate (source animal id): 220	–	16 (≈ 18.4 µM)
isolate (source animal id): 221	–	8 (≈ 9.2 µM)
isolate (source animal id): 222	8 (≈ 9.2 µM)	–
isolate (source animal id): 223	8 (≈ 9.2 µM)	8 (≈ 9.2 µM)
isolate (source animal id): 228	> 16	–
isolate (source animal id): 230	> 16	–
isolate (source animal id): 233	–	8 (≈ 9.2 µM)
isolate (source animal id): 235	> 16	–
isolate (source animal id): 236	8 (≈ 9.2 µM)	–
isolate (source animal id): 237	–	> 16
isolate (source animal id): 239	4 (≈ 4.6 µM)	–
isolate (source animal id): 241	> 16	> 16
isolate (source animal id): 244	16 (≈ 18.4 µM)	–
isolate (source animal id): 246	16 (≈ 18.4 µM)	–
isolate (source animal id): 247	> 16	–
isolate (source animal id): 250	16 (≈ 18.4 µM)	–
isolate (source animal id): 252	> 16	> 16
isolate (source animal id): 253	–	> 16
isolate (source animal id): 259	–	> 16
isolate (source animal id): 260	–	> 16
isolate (source animal id): 262	–	> 16
isolate (source animal id): 268	> 16	–
isolate (source animal id): 282	8 (≈ 9.2 µM)	> 16
isolate (source animal id): 285	> 16	–
isolate (source animal id): 287	–	> 16
isolate (source animal id): 288	–	4 (≈ 4.6 µM)
isolate (source animal id): 289	16 (≈ 18.4 µM)	–
isolate (source animal id): 290	8 (≈ 9.2 µM)	–
isolate (source animal id): 291	–	4 (≈ 4.6 µM)
isolate (source animal id): 293	–	> 16
isolate (source animal id): 296	8 (≈ 9.2 µM)	–
isolate (source animal id): 298	4 (≈ 4.6 µM)	> 16
isolate (source animal id): 299	–	> 16
isolate (source animal id): 300	–	8 (≈ 9.2 µM)
isolate (source animal id): 301	8 (≈ 9.2 µM)	–
isolate (source animal id): 302	–	> 16
isolate (source animal id): 304	–	> 16
isolate (source animal id): 306	–	4 (≈ 4.6 µM)
isolate (source animal id): 308	–	4 (≈ 4.6 µM)
isolate (source animal id): 309	–	4 (≈ 4.6 µM)
isolate (source animal id): 310	> 16	–
isolate (source animal id): 313	–	> 16
isolate (source animal id): 318	–	> 16
isolate (source animal id): 320	8 (≈ 9.2 µM)	8 (≈ 9.2 µM)
isolate (source animal id): 321	–	> 16
isolate (source animal id): 323	–	> 16
isolate (source animal id): 324	–	> 16
isolate (source animal id): 326	–	> 16
isolate (source animal id): 328	–	> 16
isolate (source animal id): 329	–	> 16
isolate (source animal id): 331	8 (≈ 9.2 µM)	–
isolate (source animal id): 333	8 (≈ 9.2 µM)	> 16
isolate (source animal id): 335	–	> 16
isolate (source animal id): 338	–	> 16
isolate (source animal id): 341	> 16	–
